Reference: the kinase profiling compilation of Christmann-Franck et al. (2016)

Assays:
Assay in all cases: radiometric filter-binding kinase assay, Kinase HotSpot
Conditions in all cases: compound 0.5 µM; ATP 10 µM
[1] = target: ABL2 (human) (UniProt P42684)
[2] = target: ACVR1 (human) (UniProt Q04771)
[3] = target: BRSK1 (human) (UniProt Q8TDC3)
[4] = target: CAMK2D (human) (UniProt Q13557)
[5] = target: CAMK2G (human) (UniProt Q13555)
[6] = target: CDK3 CCNE1 (human) (UniProt Q00526+P24864)
[7] = target: CDK6 CCND3 (human) (UniProt P30281+Q00534)
[8] = target: CSNK1G2 (human) (UniProt P78368)
[9] = target: DAPK2 (human) (UniProt Q9UIK4)
[10] = target: DCLK2 (human) (UniProt Q8N568)
[11] = target: EPHA3 (human) (UniProt P29320)
EPHA3 (human), sequence (P29320 whole entry, looked up): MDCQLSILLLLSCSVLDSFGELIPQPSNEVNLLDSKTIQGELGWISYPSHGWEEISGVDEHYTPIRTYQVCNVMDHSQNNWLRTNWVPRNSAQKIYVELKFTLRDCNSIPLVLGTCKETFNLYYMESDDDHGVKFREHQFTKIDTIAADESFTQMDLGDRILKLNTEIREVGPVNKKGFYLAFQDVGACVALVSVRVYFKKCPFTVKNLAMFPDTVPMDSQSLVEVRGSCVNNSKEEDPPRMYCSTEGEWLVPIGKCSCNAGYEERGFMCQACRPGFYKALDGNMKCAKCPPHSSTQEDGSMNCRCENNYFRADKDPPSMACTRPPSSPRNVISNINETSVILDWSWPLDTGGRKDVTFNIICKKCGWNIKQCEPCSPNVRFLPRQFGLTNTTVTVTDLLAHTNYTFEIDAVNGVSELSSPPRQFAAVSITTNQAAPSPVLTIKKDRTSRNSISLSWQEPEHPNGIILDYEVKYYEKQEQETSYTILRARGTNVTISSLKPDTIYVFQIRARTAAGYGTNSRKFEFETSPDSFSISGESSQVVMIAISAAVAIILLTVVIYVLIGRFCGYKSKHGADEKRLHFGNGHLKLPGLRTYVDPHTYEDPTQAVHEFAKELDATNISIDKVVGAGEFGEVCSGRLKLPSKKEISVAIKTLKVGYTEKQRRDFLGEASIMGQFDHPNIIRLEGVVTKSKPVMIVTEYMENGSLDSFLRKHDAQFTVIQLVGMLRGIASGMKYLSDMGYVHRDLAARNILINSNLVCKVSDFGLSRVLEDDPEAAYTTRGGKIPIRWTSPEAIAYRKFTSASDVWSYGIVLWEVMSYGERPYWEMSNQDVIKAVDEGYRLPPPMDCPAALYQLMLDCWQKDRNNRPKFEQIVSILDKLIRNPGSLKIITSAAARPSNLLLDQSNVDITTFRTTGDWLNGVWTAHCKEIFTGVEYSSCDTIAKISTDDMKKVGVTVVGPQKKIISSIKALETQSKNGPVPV

[12] = target: EPHA5 (human) (UniProt P54756)
[13] = target: ERBB4 (human) (UniProt Q15303)
[14] = target: GSK3A (human) (UniProt P49840)
[15] = target: HIPK4 (human) (UniProt Q8NE63)
[16] = target: ITK (human) (UniProt Q08881)
[17] = target: MAP3K11 (human) (UniProt Q16584)
MAP3K11 (human), sequence (Q16584 whole entry, looked up): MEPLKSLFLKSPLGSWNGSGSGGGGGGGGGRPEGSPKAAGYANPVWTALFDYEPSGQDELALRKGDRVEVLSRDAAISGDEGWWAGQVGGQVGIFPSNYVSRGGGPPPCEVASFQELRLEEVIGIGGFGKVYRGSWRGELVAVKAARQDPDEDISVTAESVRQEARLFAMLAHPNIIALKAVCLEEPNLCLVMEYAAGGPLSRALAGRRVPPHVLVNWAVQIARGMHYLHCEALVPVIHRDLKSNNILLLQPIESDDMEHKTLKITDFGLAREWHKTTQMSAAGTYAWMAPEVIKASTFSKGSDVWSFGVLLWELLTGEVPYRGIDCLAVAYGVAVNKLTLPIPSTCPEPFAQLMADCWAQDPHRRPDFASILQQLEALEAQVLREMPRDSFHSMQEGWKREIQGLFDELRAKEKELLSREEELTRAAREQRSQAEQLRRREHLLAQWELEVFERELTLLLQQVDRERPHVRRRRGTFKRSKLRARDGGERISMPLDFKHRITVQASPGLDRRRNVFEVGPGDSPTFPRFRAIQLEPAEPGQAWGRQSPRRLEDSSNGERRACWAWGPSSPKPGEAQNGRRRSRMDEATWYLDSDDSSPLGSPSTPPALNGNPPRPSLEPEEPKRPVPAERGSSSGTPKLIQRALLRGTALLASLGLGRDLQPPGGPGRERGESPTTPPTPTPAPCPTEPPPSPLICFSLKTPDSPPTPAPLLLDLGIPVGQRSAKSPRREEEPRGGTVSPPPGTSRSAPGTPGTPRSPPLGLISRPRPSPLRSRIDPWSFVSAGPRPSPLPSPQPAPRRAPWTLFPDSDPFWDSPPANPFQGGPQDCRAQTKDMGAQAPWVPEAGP

[18] = target: MAP4K4 (human) (UniProt O95819)
[19] = target: MARK3 (human) (UniProt P27448)
[20] = target: MYLK2 (human) (UniProt Q9H1R3)
[21] = target: MYO3B (human) (UniProt Q8WXR4)
[22] = target: NEK1 (human) (UniProt Q96PY6)
[23] = target: NEK2 (human) (UniProt P51955)
[24] = target: NLK (human) (UniProt Q9UBE8)
NLK (human), sequence (Q9UBE8 whole entry, looked up): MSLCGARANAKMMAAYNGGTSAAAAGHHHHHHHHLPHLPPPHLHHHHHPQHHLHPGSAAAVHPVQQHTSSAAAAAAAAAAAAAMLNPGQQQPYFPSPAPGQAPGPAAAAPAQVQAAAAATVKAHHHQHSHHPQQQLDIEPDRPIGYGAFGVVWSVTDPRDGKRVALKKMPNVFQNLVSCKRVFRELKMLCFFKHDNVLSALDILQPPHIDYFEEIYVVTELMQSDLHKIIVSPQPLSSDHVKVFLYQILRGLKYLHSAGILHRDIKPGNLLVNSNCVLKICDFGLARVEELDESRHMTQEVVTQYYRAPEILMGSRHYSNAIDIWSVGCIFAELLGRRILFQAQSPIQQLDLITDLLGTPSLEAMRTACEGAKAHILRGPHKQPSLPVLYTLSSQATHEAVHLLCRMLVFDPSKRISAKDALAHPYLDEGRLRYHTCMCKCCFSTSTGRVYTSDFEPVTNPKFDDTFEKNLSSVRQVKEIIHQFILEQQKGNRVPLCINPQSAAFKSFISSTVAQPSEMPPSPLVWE

[25] = target: PAK4 (human) (UniProt O96013)
PAK4 (human), sequence (O96013 whole entry, looked up): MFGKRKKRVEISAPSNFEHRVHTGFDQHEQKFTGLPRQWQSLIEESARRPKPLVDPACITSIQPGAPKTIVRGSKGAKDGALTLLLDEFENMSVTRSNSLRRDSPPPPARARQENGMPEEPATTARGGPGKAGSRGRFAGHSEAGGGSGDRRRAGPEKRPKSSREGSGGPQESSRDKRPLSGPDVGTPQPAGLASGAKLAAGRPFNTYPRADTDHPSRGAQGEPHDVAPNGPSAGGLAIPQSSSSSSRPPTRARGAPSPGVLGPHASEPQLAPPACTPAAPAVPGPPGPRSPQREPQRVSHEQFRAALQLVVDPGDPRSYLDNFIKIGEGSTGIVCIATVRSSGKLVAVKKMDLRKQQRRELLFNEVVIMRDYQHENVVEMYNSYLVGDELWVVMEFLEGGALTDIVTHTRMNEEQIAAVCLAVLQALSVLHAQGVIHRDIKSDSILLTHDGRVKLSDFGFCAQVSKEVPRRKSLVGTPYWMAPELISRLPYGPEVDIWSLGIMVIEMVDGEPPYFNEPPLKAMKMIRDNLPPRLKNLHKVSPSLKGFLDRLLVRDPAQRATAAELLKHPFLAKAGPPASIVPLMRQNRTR

[26] = target: PASK (human) (UniProt Q96RG2)
PASK (human), sequence (Q96RG2 whole entry, looked up): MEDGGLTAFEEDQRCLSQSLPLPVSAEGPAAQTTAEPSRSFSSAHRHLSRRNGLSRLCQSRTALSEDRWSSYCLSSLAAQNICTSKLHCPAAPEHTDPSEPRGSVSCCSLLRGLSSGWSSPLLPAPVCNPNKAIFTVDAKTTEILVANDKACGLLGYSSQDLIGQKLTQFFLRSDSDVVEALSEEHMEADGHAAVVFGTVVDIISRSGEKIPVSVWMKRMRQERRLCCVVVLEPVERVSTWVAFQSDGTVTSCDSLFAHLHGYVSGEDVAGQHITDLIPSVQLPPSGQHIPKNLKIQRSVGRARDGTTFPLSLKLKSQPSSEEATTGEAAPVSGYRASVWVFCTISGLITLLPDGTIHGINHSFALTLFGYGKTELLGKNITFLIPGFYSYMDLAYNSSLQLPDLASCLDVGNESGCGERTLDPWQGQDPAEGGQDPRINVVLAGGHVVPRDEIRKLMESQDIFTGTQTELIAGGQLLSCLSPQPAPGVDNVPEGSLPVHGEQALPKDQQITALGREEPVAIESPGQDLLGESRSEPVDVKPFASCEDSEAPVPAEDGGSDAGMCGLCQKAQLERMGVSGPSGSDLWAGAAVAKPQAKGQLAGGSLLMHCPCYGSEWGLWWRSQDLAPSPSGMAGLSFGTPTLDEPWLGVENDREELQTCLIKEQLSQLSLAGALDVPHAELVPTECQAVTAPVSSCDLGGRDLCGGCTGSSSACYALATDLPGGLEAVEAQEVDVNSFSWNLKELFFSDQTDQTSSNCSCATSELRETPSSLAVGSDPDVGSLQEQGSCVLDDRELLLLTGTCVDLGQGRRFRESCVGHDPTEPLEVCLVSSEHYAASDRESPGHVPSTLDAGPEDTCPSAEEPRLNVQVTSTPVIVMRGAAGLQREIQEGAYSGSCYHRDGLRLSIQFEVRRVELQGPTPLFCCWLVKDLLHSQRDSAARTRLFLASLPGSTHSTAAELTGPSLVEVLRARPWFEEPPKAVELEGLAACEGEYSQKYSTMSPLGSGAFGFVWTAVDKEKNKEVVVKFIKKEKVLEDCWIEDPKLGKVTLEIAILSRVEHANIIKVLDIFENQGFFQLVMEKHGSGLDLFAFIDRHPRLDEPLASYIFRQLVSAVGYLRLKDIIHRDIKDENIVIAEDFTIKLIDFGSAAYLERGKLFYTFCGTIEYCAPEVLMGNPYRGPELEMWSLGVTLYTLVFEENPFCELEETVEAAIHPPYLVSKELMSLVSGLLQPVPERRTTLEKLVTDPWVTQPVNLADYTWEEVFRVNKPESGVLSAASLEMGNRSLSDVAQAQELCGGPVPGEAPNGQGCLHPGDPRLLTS

[27] = target: PBK (human) (UniProt Q96KB5)
[28] = target: PRKG2 (human) (UniProt Q13237)
[29] = target: RPS6KA1 KD1 KD2 (human) (UniProt Q15418)
RPS6KA1 KD1 KD2 (human), sequence (Q15418 whole entry, looked up): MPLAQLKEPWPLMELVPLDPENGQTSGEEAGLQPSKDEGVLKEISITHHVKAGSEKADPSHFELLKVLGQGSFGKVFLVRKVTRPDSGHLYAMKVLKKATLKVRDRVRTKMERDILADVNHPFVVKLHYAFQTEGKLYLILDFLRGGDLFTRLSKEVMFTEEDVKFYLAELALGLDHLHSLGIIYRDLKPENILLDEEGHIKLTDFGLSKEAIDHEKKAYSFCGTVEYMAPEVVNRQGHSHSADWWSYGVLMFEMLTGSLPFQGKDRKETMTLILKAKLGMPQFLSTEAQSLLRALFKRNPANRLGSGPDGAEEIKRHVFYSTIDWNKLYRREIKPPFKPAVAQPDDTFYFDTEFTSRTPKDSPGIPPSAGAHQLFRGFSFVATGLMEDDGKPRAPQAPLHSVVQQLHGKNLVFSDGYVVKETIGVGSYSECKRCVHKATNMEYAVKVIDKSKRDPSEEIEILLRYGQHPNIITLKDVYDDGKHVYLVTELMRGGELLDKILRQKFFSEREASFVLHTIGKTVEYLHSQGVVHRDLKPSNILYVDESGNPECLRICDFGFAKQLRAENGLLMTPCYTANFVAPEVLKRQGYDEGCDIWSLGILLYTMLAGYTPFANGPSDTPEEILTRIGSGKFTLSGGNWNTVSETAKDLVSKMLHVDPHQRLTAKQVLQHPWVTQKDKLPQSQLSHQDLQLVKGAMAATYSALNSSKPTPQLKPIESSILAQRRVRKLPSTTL

[30] = target: SGK2 (human) (UniProt Q9HBY8)
[31] = target: SRPK1 (human) (UniProt Q96SB4)
[32] = target: STK10 (human) (UniProt O94804)
[33] = target: STK38 (human) (UniProt Q15208)
[34] = target: TAOK1 (human) (UniProt Q7L7X3)
[35] = target: TAOK3 (human) (UniProt Q9H2K8)
[36] = target: TEC (human) (UniProt P42680)
[37] = target: TGFBR2 (human) (UniProt P37173)
[38] = target: TLK2 (human) (UniProt Q86UE8)
[39] = target: KDR (human) (UniProt P35968)
[40] = target: MAPK12 (human) (UniProt P53778)
[41] = target: PRKD2 (human) (UniProt Q9BZL6)

C[C@@H]1CCN(C(=O)CC#N)C[C@@H]1N(C)c1ncnc2[nH]ccc12
residual activity [1]: 90.5%
residual activity [2]: 104%
residual activity [3]: 102%
residual activity [4]: 98.2%
residual activity [5]: 127%
residual activity [6]: 92.3%
residual activity [7]: 110%
residual activity [8]: 95.4%
residual activity [9]: 89.5%
residual activity [10]: 96.6%
residual activity [11]: 94.1%
residual activity [12]: 99.9%
residual activity [13]: 100%
residual activity [14]: 103%
residual activity [15]: 96.2%
residual activity [16]: 99.1%
residual activity [17]: 104%
residual activity [18]: 101%
residual activity [19]: 78.6%
residual activity [20]: 99%
residual activity [21]: 89.3%
residual activity [22]: 84.6%
residual activity [23]: 103%
residual activity [24]: 110%
residual activity [25]: 99.2%
residual activity [26]: 105%
residual activity [27]: 102%
residual activity [28]: 106%
residual activity [29]: 90.9%
residual activity [30]: 104%
residual activity [31]: 99.8%
residual activity [32]: 92.9%
residual activity [33]: 95.7%
residual activity [34]: 99.9%
residual activity [35]: 94.9%
residual activity [36]: 95.4%
residual activity [37]: 98.8%
residual activity [38]: 94.4%

CS(=O)(=O)CCNCc1ccc(-c2ccc3ncnc(Nc4ccc(OCc5cccc(F)c5)c(Cl)c4)c3c2)o1
residual activity [1]: 97.3%
residual activity [2]: 106%
residual activity [3]: 98.6%
residual activity [4]: 92.5%
residual activity [5]: 111%
residual activity [6]: 94.6%
residual activity [7]: 120%
residual activity [8]: 99.5%
residual activity [9]: 103%
residual activity [10]: 101%
residual activity [11]: 98.2%
residual activity [12]: 103%
residual activity [13]: 11.2%
residual activity [14]: 105%
residual activity [15]: 108%
residual activity [16]: 98.3%
residual activity [39]: 96.6%
residual activity [17]: 106%
residual activity [18]: 111%
residual activity [40]: 95%
residual activity [19]: 95.9%
residual activity [20]: 108%
residual activity [21]: 96.1%
residual activity [22]: 71.8%
residual activity [23]: 118%
residual activity [24]: 108%
residual activity [25]: 89.9%
residual activity [26]: 101%
residual activity [27]: 105%
residual activity [41]: 86.4%
residual activity [28]: 107%
residual activity [29]: 105%
residual activity [30]: 106%
residual activity [31]: 100%
residual activity [32]: 94.8%
residual activity [33]: 101%
residual activity [34]: 98.8%
residual activity [35]: 101%
residual activity [36]: 101%
residual activity [37]: 96.1%
residual activity [38]: 83.9%

N#Cc1c[nH]c2c[nH]/c(=N\Cc3cccnc3)cc2/c1=N\c1ccc(F)c(Cl)c1
residual activity [1]: 87.4%
residual activity [2]: 95.6%
residual activity [3]: 94.5%
residual activity [4]: 103%
residual activity [5]: 91.2%
residual activity [6]: 95.6%
residual activity [7]: 88.8%
residual activity [8]: 102%
residual activity [9]: 108%
residual activity [10]: 97.2%
residual activity [11]: 122%
residual activity [12]: 90.6%
residual activity [13]: 72.6%
residual activity [14]: 88.5%
residual activity [15]: 93.1%
residual activity [16]: 99.1%
residual activity [39]: 96.3%
residual activity [17]: 89%
residual activity [18]: 44.4%
residual activity [19]: 101%
residual activity [20]: 96.2%
residual activity [21]: 87.9%
residual activity [22]: 20.5%
residual activity [23]: 75.2%
residual activity [24]: 88%
residual activity [25]: 85.4%
residual activity [26]: 124%
residual activity [27]: 84.8%
residual activity [41]: 99.7%
residual activity [28]: 90.9%
residual activity [29]: 94.6%
residual activity [30]: 98.5%
residual activity [31]: 102%
residual activity [32]: 52.8%
residual activity [33]: 93.9%
residual activity [34]: 89.9%
residual activity [35]: 99.2%
residual activity [36]: 118%
residual activity [37]: 118%
residual activity [38]: 106%
